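Growth conditions: 96-well plates. Treatment: test compound, 48 hours, 5 concentrations. Analysis: linear interpolation between bracketing concentrations; unreached endpoints set to highest concentration. GI50 = concentration required for 50% inhibition of growth.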 Activity calls are given as the source filed them. Rule as the data show it: active = GI50 up to about 1.1 µM and inactive = higher.
Assays:
Test in all cases: inhibition of tumour cell growth, NCI panel, 48 h
786-0 = tested on: 786-0
A498 = tested on: A498
CAKI-1 = tested on: CAKI-1
CCRF-CEM = tested on: CCRF-CEM
HL-60 = tested on: HL-60
HOP-62 = tested on: HOP-62
KM-20L2 = tested on: KM-20L2
NCI-H226 = tested on: NCI-H226
NCI-H23 = tested on: NCI-H23
NCI-H522 = tested on: NCI-H522
OVCAR-4 = tested on: OVCAR-4
OVCAR-8 = tested on: OVCAR-8
SF-295 = tested on: SF-295
SF-539 = tested on: SF-539
SN12C = tested on: SN12C
TK-10 = tested on: TK-10
U-251 = tested on: U-251
HOP-92 = tested on: HOP-92
MCF7 = tested on: MCF7
MDA-N = tested on: MDA-N

Measured: GI50

COC12C=CC(CC1)c1c(O)ccc(O)c12 (stereo not drawn)
inactive: 786-0 > 64.9 µM | A498 > 100 µM | CAKI-1 > 80.9 µM | CCRF-CEM 20.6 µM | HL-60 2.39 µM | HOP-62 > 100 µM | KM-20L2 82.8 µM | NCI-H226 39.1 µM | NCI-H23 > 86.1 µM | NCI-H522 16.8 µM | OVCAR-4 19.6 µM | OVCAR-8 33 µM | SF-295 > 90.8 µM | SF-539 > 100 µM | SN12C 59.3 µM | TK-10 > 49.7 µM | U-251 38.9 µM

COc1cc(C(C#N)NNC(=O)Cc2ccccc2)cc(OC)c1OC (stereo not drawn)
inactive: 786-0 > 100 µM | CAKI-1 > 100 µM | CCRF-CEM > 10 µM | HL-60 > 100 µM | HOP-62 > 100 µM | HOP-92 95.3 µM | KM-20L2 > 100 µM | NCI-H226 > 100 µM | NCI-H23 > 100 µM | NCI-H522 > 100 µM | OVCAR-4 > 100 µM | OVCAR-8 > 100 µM | SF-295 > 100 µM | SF-539 > 100 µM | SN12C > 100 µM | TK-10 > 100 µM | U-251 > 100 µM

N#CCCN(CCC#N)c1ccc(/C=C2\N=C(c3cc([N+](=O)[O-])ccc3Cl)OC2=O)cc1
inactive: 786-0 34.4 µM | A498 > 100 µM | CAKI-1 > 100 µM | HL-60 38.1 µM | HOP-62 35.4 µM | KM-20L2 > 100 µM | NCI-H226 22.4 µM | NCI-H522 14 µM | OVCAR-4 30 µM | OVCAR-8 19.1 µM | SF-295 44.5 µM | SF-539 40.3 µM | SN12C 19.9 µM | U-251 17.6 µM

CC1(C)CC(/C=C2/OC(=O)c3ccccc32)=C(C#N)C(=O)O1
inactive: 786-0 > 100 µM | CAKI-1 > 100 µM | CCRF-CEM > 100 µM | HOP-62 > 100 µM | KM-20L2 > 100 µM | NCI-H226 > 100 µM | NCI-H23 > 100 µM | NCI-H522 > 100 µM | OVCAR-4 18.6 µM | OVCAR-8 > 100 µM | SF-295 > 100 µM | SF-539 > 100 µM | SN12C > 100 µM | U-251 > 100 µM

O=C(O)C1=C(Cl)c2ccccc2S1(=O)=O
inactive: 786-0 > 100 µM | CAKI-1 > 100 µM | CCRF-CEM > 100 µM | HL-60 > 100 µM | HOP-62 > 100 µM | HOP-92 > 100 µM | KM-20L2 > 100 µM | NCI-H23 > 100 µM | NCI-H522 19.8 µM | OVCAR-4 > 100 µM | OVCAR-8 > 100 µM | SF-295 > 100 µM | SN12C > 100 µM | TK-10 > 100 µM

CC(=O)Oc1cc(OC(C)=O)c(OC(C)=O)c2c1CC1C(=O)C3(CCc4ccccc43)C(=O)C1C2 (stereo not drawn)
inactive: 786-0 13.6 µM | CAKI-1 20.2 µM | CCRF-CEM 10.7 µM | HL-60 4.53 µM | HOP-62 21.1 µM | HOP-92 > 100 µM | KM-20L2 22.8 µM | NCI-H23 18.4 µM | OVCAR-4 11.7 µM | OVCAR-8 14.2 µM | SF-295 4.61 µM | SN12C 17.3 µM | TK-10 17.4 µM | U-251 15.8 µM

O=C(O)CCCc1cc2c(s1)-c1cccc3cccc-2c13
inactive: 786-0 > 100 µM | CAKI-1 32.6 µM | HL-60 22.4 µM | HOP-62 33.3 µM | HOP-92 17.7 µM | KM-20L2 52.2 µM | NCI-H226 84.9 µM | NCI-H23 21.2 µM | NCI-H522 21 µM | OVCAR-4 76.9 µM | OVCAR-8 39.4 µM | SF-295 50.1 µM | SF-539 45.3 µM | SN12C 26 µM | TK-10 49 µM | U-251 25.4 µM

COc1ccc(/C(=N\NC(=O)C(N)=O)C(c2ccc(OC)cc2)C2(O)C(=O)Nc3c(Cl)cccc32)cc1 (stereo not drawn)
inactive: 786-0 74.8 µM | CCRF-CEM 50.1 µM | HL-60 26.9 µM | HOP-62 > 100 µM | HOP-92 > 100 µM | KM-20L2 > 100 µM | NCI-H226 > 100 µM | NCI-H23 > 100 µM | OVCAR-4 > 100 µM | OVCAR-8 > 100 µM | SF-295 > 100 µM | SN12C > 100 µM | TK-10 > 100 µM | U-251 > 100 µM

Cc1ccc(Cn2c(C)nc3c2C(=O)c2ccccc2C3=O)cc1
inactive: 786-0 2.18 µM | CCRF-CEM 1.98 µM | HL-60 1.91 µM | HOP-62 14 µM | KM-20L2 5.21 µM | NCI-H226 6.9 µM | NCI-H23 5.21 µM | NCI-H522 3.14 µM | OVCAR-4 13.3 µM | OVCAR-8 3.05 µM | SF-295 7.66 µM | SF-539 1.32 µM | SN12C 6.18 µM | TK-10 13 µM | U-251 1.88 µM

CC1=CP(=O)(OC(C)C)C=C(C)C1=C(Cl)Cl (stereo not drawn)
inactive: 786-0 > 100 µM | CCRF-CEM 54 µM | HL-60 34.9 µM | HOP-62 > 100 µM | HOP-92 16.9 µM | KM-20L2 39.1 µM | NCI-H226 26.2 µM | NCI-H23 52.7 µM | NCI-H522 2.52 µM | OVCAR-4 > 100 µM | OVCAR-8 68.7 µM | SF-295 45.2 µM | SF-539 84.1 µM | SN12C 36.1 µM | TK-10 > 100 µM | U-251 35.7 µM

COc1cc(Nc2nc3ccccc3nc2-c2cccs2)cc(OC)c1OC
inactive: 786-0 22.4 µM | CCRF-CEM 47.1 µM | HL-60 15.2 µM | HOP-62 39.4 µM | HOP-92 13.9 µM | KM-20L2 36.1 µM | NCI-H226 66.7 µM | NCI-H23 50.6 µM | OVCAR-8 > 10 µM | SF-295 22.8 µM | SF-539 40.6 µM | SN12C 30.9 µM | TK-10 35.8 µM | U-251 > 10 µM

CC[C@@H]1CC[C@@H]2[C@H](CC[C@]3(C)[C@@H](O[N+](=O)[O-])CC[C@@H]23)[C@H]1C(C)=O
inactive: 786-0 50.7 µM | A498 31 µM | CAKI-1 50.7 µM | CCRF-CEM 32.4 µM | HL-60 13.5 µM | HOP-62 46.3 µM | HOP-92 21.6 µM | MCF7 23.8 µM | MDA-N 28.9 µM | NCI-H226 26.5 µM | NCI-H23 28.1 µM | NCI-H522 28.8 µM | OVCAR-4 39 µM | OVCAR-8 37.2 µM | SF-295 42.6 µM | SF-539 38.3 µM | SN12C 43.3 µM | TK-10 > 100 µM | U-251 32.4 µM

CC(=O)OCCOc1cc2c([nH]c3ccccc32)c(C)c2cccc1-2
inactive: 786-0 2.84 µM | A498 8.93 µM | CAKI-1 2.12 µM | CCRF-CEM 3.38 µM | HL-60 3.05 µM | HOP-62 4.6 µM | HOP-92 1.86 µM | MCF7 2.94 µM | MDA-N 3.16 µM | NCI-H226 10.3 µM | NCI-H23 1.94 µM | NCI-H522 1.84 µM | OVCAR-4 1.77 µM | OVCAR-8 2.59 µM | SF-295 3.28 µM | SF-539 1.91 µM | SN12C 3.01 µM | TK-10 2.2 µM | U-251 1.69 µM

— ChEMBL document CHEMBL1201862, “PubChem BioAssay data set” (2004)
